Measured values taken from patent publication EP0231151A2, “Immunosuppressant agents” (priority 1986, dated 1987).
Like-named read-outs stand apart in the source and are kept apart here.

How the values were obtained:
[1] = molecular target: 5-HT sensitive adenylate cyclase; assay: Activation of 5-HT sensitive adenylate cyclase of the liver fluke (method of Markstein); type: biochemical; settings: adenylate cyclase stimulated by serotonin
Excerpt: A group of compounds comprises compounds which are D₂ agonists without any antagonistic activity. Another group of compounds includes those compounds which are serotonin agonists, e.g. as indicated in standard in vitro binding tests and by activation of 5-HT sensitive adenylate cyclase of the liver fluke according to the method of R.Markstein, Neurochemical effects of some ergot derivatives: A basis for their antiparkinson actions. J.Neural transm 51:39, (1981).
Examples of such compounds include compound C and pergolide. Compound C, pergolide and 5-HT have efficacies of 90,80 and 100 respectively and pD₂ [log EC₅₀] of 6.9, 6.9 and 7.7 respectively in this test on adenylate cyclase stimulated by serotonin.

[2] = system: basal serum prolactin levels; assay: Lowering basal serum prolactin levels in the male rat (prolactin secretion inhibition); type: in vivo; settings: read-out: ID50 after 4 hours
Excerpt: Many of the above mentioned compounds are published as prolactin secretion inhibitors, some of which are extremely potent and have long lasting activity. The potency of the compounds as prolactin secretion inhibitors can be determined in standard tests, e.g. by lowering basal serum prolactin levels in the male rat.
Results with representative compounds include:-

[3] = system: splenic lymphocytes forming lytic antibodies to the SRBC; assay: Antibody producing cell development in the mouse (PFC test), plaque forming cells to SRBC; type: in vivo
Protocol: These methods permit the quantitation of the number of splenic lymphocytes forming lytic antibodies to the SRBC and the distinction between IgM and IgG producing cells.
The intravenous injection of SRBC (5 x 10⁷) in 0.2 ml i.v. served as the primary immunization antigen source in the mouse studies. The mice in these studies were female C57 black of ca 20 grams body weight. All animals were pretreated with the respective compounds for one day prior to the SRBC treatment and daily treated thereafter at 11.00 h for a total of 6 days. The spleens were removed for the determination of PFC numbers to the SRBC antigen.
The spleen cells were suspended in Hepes-buffered Balanced Salt Solution (HBSS), washed once, and resuspended in a volume adjusted according to the expected number of plaque forming cells. The direct quantitiation of IgM-PFC was performed by plaquing 0.1 ml of the diluted splenic cells with 0.025 ml of SRBC (30%), 0.3 ml Agar (0.5% in HBSS), and 0.025 ml complement (guinea pig serum) and plated on Petri dishes. An indirect method of IgG-PFC quantitation was performed with a monoclonal antibody to the IgM (1:4 dilution) plus an anti-gama polyspecific antiserum (1:800) to permit complement fixation. The splenic lymphocytes from each mouse spleen were plated to quantitate IgM- and IgG-PFC in duplicate. All plates were incubated for 4 hours at 37°C and then stored overnight in humidified chambers at 4°C. Plaques were counted by hand with the use of a plaque counter.

[4] = system: immuno-responsiveness of effector lymphocytes to histoincompatible (allogenic) lymphocytes; assay: Mixed lymphocyte reaction test in mice, 2nd variant (both strains treated, ex vivo 3H-thymidine incorporation); settings: at least 7 days
Protocol: The compounds furthermore inhibit the immuno-responsiveness of effector lymphocytes to histoincompatible (allogenic) lymphocytes in a variante of the above two way MLR (mixed lymphocyte reaction) test.
Mice of two histo-incompatible strains (Balb/c and CBA) (6-8 weeks old) were once daily treated s.c. with a compound of the invention for at least 7 days. The spleens are removed 3 hours after the last drug administration. The MLR test is effected with 0.5 x 10⁶ spleen cells from Balb/c mice and 0.5 x 10⁶ spleen cells from CBA mice the latter having been irradiated with 2000 rad. The spleen cells of the Balb-c mice are incubated with the allogenic CBA-spleen cells for 4 days. Radioactive thymidine is added and after 16 hours the incorporation of ³H-thymidine in the DNA of the mouse spleen cells was measured.

[5] = system: Local graft versus host (GvH); assay: Local graft versus host (GvH) reaction in the rat, lymph node weight; type: in vivo; settings: for Weight lymph node: control ca 33 mg; for Percentage Difference: versus control ca 33 mg
Protocol: Spleen cells (ca 1 x 10⁷) are taken from 6 week old Wistar/Furth/(W/F) rats and are injected into the left hind paw of female (F 344 x WF) F1 rats weighing about 100 g. The rats had been treated daily with the compound from 7 days before the injection and are treated daily for 3 days thereafter. The difference in weight between the left and right lymph nodes is taken as the parameter for evaluating the reaction.

[6] = system: ornithine decarboxylase (ODC); assay: Biosynthetic rate in the rat: ornithine decarboxylase activity in tissues after Complete Freund's adjuvant; type: in vivo; settings: Freund's adjuvant treated rats
Protocol: The marker used in this study to determine the biosynthetic rate of the lymphoid and endocrine tissues was ornithine decarboxylase (ODC). ODC, the rate-limiting enzyme in polyamine biosynthesis, serves as a early marker of G₁ cell cycle progression of proliferating tissues and increased biosynthesis in secretory tissues, in response to trophic or stimulatory substances. There is a peak activity of ODC subsequent to stimulation in vivo within 4 hours - making this enzyme a useful intracellular marker for understanding the relationship between agonists and target tissue response. The ODC activity of lymphoid tissues appears to relate to a functional response to the immune system.
In a typical test method KFM male rats (150 - 175 g) were treated with the compound of the invention one day prior to the administration of Complete Freund's adjuvant in analogous manner to that described above. Administration of the compound was repeated once time per day afterwards. Two days later the animals were decapitated, the tissues removed and frozen in liquid nitrogen. The ODC activities (pmol/30 min./mg protein) are measured. The ODC activity was determined by measuring the liberation of 14CO₂ from L-(1-14C)-ornithine as described by Snyder et al Proc.Natl.Acad.Sci.60:1420, 1968.

[7] = Acute toxicity (LD50) in the mouse; settings: in vivo; for LD50 at 168 h: iv, over 7 days, read-out: acute LD₅₀ (mouse) i.v.; for LD50 at 336 h: po, over 14 days, read-out: acute LD₅₀ (mouse) p.o.
Excerpt: (§1) Toxicity data for some of the comounds of the invention have been published. Such data may be determined by routine experimentation. TOXICITY DATA for representative compounds NTEL = No toxic effect level.

[8] = No toxic effect level (NTEL), repeated oral dosing in rats; settings: rat, in vivo, p.o.
Excerpt: as §1

[9] = No toxic effect level (NTEL) / tolerability, repeated oral dosing in dogs; settings: dog, in vivo, no toxic effect level, p.o.
Excerpt: as §1

adjuvant arthritis = assay: Freund's adjuvant arthritis in the rat, hind limb thickness; type: in vivo; settings: 0.1 mg/kg/day s.c. osmotic pump
Protocol: One test model is a rodent model of developing autoimmune adjuvant arthritis. An inhibition of the development of adjuvant arthritis is observed.
In one variante, Myobacterium Butyricum purchased from Difco Laboratories, Detroit, Michigan, was prepared in an emulsion with paraffin subliquidium PHHVI (Siegried Zofingen, Switzerland) at a concentration of 6 mg/ml. During ether anaesthesia a volume of 0.1 ml of this emulsion was injected with a 21 g 1-1/2 inch needle intracutaneously at the base of the tail of male Sprague-Dawley rats (ca 150-175 g). Arthritis occurred in 95% to 100% of the hind legs in the positive control animals. The hind limb (mid-tibial region) thickness was measured with a linear guage (Mitutoyo) coupled to an electronic digital readout (Mitutoyo).
100% of a control group developed adjuvant arthritis. The compounds of the invention are administered by means of a sub-cutaneously sustained osmotic pump, over 7 days or 14 days to groups of 5 animals. Progression of the arthritis and the inhibiting effect of a representative compound, compound B, at 0.1 mg/kg/day are as follows:-

NCCc1c[nH]c2ccc(O)cc12 [Compound 5-HT]
pD₂ [log EC₅₀] [1]: 7.7
efficacies ([1]; 5-HT = 100): 100

CCCN1C[C@@H](NS(=O)(=O)N(CC)CC)C[C@@H]2c3cccc4[nH]cc(c34)C[C@H]21 [Compound C, 6-n-propyl-8α-(N,N,-diethylsulphamoylamino)-ergoline-I]
ED50 ([2]; lowering basal serum prolactin levels, male rat, after 4 hours): 0.001 mg/kg
pD₂ [log EC₅₀] [1]: 6.9
percent change from control at 0.01 mg/kg/day ([3]; Mus musculus, Splenic lymphocyte, po, Test B, 0.01 mg/kg/day p.o., read-out: IgM % of control): -49%
percent change from control at 0.1 mg/kg/day ([3]; Mus musculus, Splenic lymphocyte, po, Test B, 0.1 mg/kg/day p.o., read-out: IgM % of control): -26%
percent change from control at 1 mg/kg/day ([3]; Mus musculus, Splenic lymphocyte, po, Test B, 1 mg/kg/day p.o., read-out: IgM % of control): -1%
IgM (PFC x 10^3 per spleen) ([3]; Test B, 0.01 mg/kg/day p.o.): 167.2 PFC x 10^3 per spleen
IgM (PFC x 10^3 per spleen) ([3]; Test B, 0.1 mg/kg/day p.o.): 244.4 PFC x 10^3 per spleen
IgM (PFC x 10^3 per spleen) ([3]; Test B, 1 mg/kg/day p.o.): 327.0 PFC x 10^3 per spleen
reduction of IgM titre ([3]; combination: Cyclosporine 60 mg/kg/day p.o. and Compound C 0.1 mg/kg/day p.o.): 63%
Change from control ([4]; 0.05 mg/kg s.c. once daily): -71%
Change from control ([4]; 0.5 mg/kg s.c. once daily): -50%
Change from control ([4]; 5 mg/kg s.c. once daily): -20%
Weight lymph node ([5]; 0.001 mg/kg/day): 24 mg
Percentage Difference ([5]; 0.001 mg/kg/day): -28%
Weight lymph node ([5]; 0.01 mg/kg/day): 19 mg
Percentage Difference ([5]; 0.01 mg/kg/day): -42%
Weight lymph node ([5]; 0.1 mg/kg/day): 18 mg
Percentage Difference ([5]; 0.1 mg/kg/day): -45%
ODC activities, Adrenal Medulla ([6]; 0.01 mg/kg): 17.10 pmol/30 min./mg protein
ODC activities, Anterior Pituitary ([6]; 0.01 mg/kg): 32.60 pmol/30 min./mg protein
ODC activities, Bone Marrow ([6]; 0.01 mg/kg): 17.40 pmol/30 min./mg protein
ODC activities, Lymph Nodes ([6]; 0.01 mg/kg): 43.10 pmol/30 min./mg protein
ODC activities, Spleen ([6]; 0.01 mg/kg): 12.14 pmol/30 min./mg protein
ODC activities, Thymus ([6]; 0.01 mg/kg): 98.80 pmol/30 min./mg protein
ODC activities, Adrenal Medulla ([6]; 0.1 mg/kg): 180.0 pmol/30 min./mg protein
ODC activities, Anterior Pituitary ([6]; 0.1 mg/kg): 33.70 pmol/30 min./mg protein
ODC activities, Bone Marrow ([6]; 0.1 mg/kg): 45.80 pmol/30 min./mg protein
ODC activities, Lymph Nodes ([6]; 0.1 mg/kg): 107.30 pmol/30 min./mg protein
ODC activities, Spleen ([6]; 0.1 mg/kg): 34.62 pmol/30 min./mg protein
ODC activities, Thymus ([6]; 0.1 mg/kg): 171.40 pmol/30 min./mg protein
ODC activities, Adrenal Medulla ([6]; 0.5 mg/kg): 95.0 pmol/30 min./mg protein
ODC activities, Anterior Pituitary ([6]; 0.5 mg/kg): 41.20 pmol/30 min./mg protein
ODC activities, Bone Marrow ([6]; 0.5 mg/kg): 43.40 pmol/30 min./mg protein
ODC activities, Lymph Nodes ([6]; 0.5 mg/kg): 103.90 pmol/30 min./mg protein
ODC activities, Spleen ([6]; 0.5 mg/kg): 37.96 pmol/30 min./mg protein
ODC activities, Thymus ([6]; 0.5 mg/kg): 177.0 pmol/30 min./mg protein
LD50 at 168 h [7]: 45 mg/kg
LD50 at 336 h [7]: 69 mg/kg
NOAEL at 672 h ([8]; 4 weeks): 0.19 mg/kg/day
NOAEL at 672 h ([9]; 4 weeks, read-out: NTEL (4 weeks) dogs): 0.2 mg/kg/day

CCN(CC)S(=O)(=O)N[C@H]1C[C@@H]2c3cccc4c3c(cn4CC)C[C@H]2N(C)C1 [Compound D, N,N-diethyl-Nʹ-[(8α)-1-ethyl-6-methyl-ergolin-8-yl]-sulfamide]
LD50 at 168 h [7]: 44 mg/kg
LD50 at 336 h [7]: 992 mg/kg
NOAEL at 4368 h ([8]; 26 weeks): 5 to 17 mg/kg/day
NOAEL at 4368 h ([9]; 26 weeks): 0.3 mg/kg/day

CCCN1C[C@H](CSC)C[C@@H]2c3cccc4[nH]cc(c34)C[C@H]21 [pergolide, 6-n-propyl-8α-methylmercaptomethyl-ergoline-I]
pD₂ [log EC₅₀] [1]: 6.9

CN1C[C@@H](NS(=O)(=O)N(C)C)C[C@@H]2c3cccc4c3c(cn4C)C[C@H]21 [Compound B, 1,6-dimethyl-8α-(N,N-dimethylsulphamoylamino)-ergoline-I]
ED50 ([2]; Rattus norvegicus, 4 h): 0.003 mg/kg
Hind Limb Thickness (mm) (adjuvant arthritis; Day 0, 7 days dosing): 6.1 mm
Hind Limb Thickness (mm) (adjuvant arthritis; Day 0, 14 days dosing): 6.0 mm
Hind Limb Thickness (mm) (adjuvant arthritis; Day 3, 7 days dosing): 6.2 mm
Hind Limb Thickness (mm) (adjuvant arthritis; Day 3, 14 days dosing): 6.2 mm
Hind Limb Thickness (mm) (adjuvant arthritis; Day 6, 7 days dosing): 6.2 mm
Hind Limb Thickness (mm) (adjuvant arthritis; Day 6, 14 days dosing): 6.2 mm
Hind Limb Thickness (mm) (adjuvant arthritis; Day 9, 7 days dosing): 6.5 mm
Hind Limb Thickness (mm) (adjuvant arthritis; Day 9, 14 days dosing): 6.7 mm
Hind Limb Thickness (mm) (adjuvant arthritis; Day 12, 7 days dosing): 6.9 mm
Hind Limb Thickness (mm) (adjuvant arthritis; Day 12, 14 days dosing): 7.7 mm
Hind Limb Thickness (mm) (adjuvant arthritis; Day 15, 7 days dosing): 7.6 mm
Hind Limb Thickness (mm) (adjuvant arthritis; Day 15, 14 days dosing): 7.8 mm
Hind Limb Thickness (mm) (adjuvant arthritis; Day 18, 7 days dosing): 7.9 mm
Hind Limb Thickness (mm) (adjuvant arthritis; Day 18, 14 days dosing): 7.9 mm
Hind Limb Thickness (mm) (adjuvant arthritis; Day 21, 7 days dosing): 8.2 mm
Hind Limb Thickness (mm) (adjuvant arthritis; Day 21, 14 days dosing): 8.2 mm
